According to patent publication US9346761B2, “Arginine methyltransferase inhibitors and uses thereof” (Epizyme, Inc., priority 2013, dated 2016):
Counter-ions that a name gives are not always drawn. Like-named read-outs stand apart in the source and are kept apart here.

Experiments:
[1] = biological target: T1, Full-length human PRMT1 isoform 1 (Homo sapiens, UniProt Q99873); test: PRMT1 biochemical assay (3H-SAM Flashplate, peptide substrate)
T1 construct: GST-tagged PRMT1; made in house; host or cells: High Five insect cells (baculovirus, pFastBacI)
Method in brief: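 Tritiated methyl transfer from 3H-SAM onto biotinylated peptide, captured on streptavidin Flashplates and counted. Baculovirus-expressed GST-PRMT1 and compound were preincubated 30 min at room temperature in Bicine buffer pH 7.6. Cold SAM at 300 uM final ended the reaction.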

[2] = tested on: mono-methyl arginine in RKO cells; test: RKO methylation assay, In Cell Western for mono-methyl arginine and DNA content; type: cell-based; settings: Homo sapiens
[3] = In Cell Western, RKO cells, 72 hours, percent activation of mono-methyl arginine signal, read-out: EC30

T1 sequence (Q99873 with tags, fused parts or gaps): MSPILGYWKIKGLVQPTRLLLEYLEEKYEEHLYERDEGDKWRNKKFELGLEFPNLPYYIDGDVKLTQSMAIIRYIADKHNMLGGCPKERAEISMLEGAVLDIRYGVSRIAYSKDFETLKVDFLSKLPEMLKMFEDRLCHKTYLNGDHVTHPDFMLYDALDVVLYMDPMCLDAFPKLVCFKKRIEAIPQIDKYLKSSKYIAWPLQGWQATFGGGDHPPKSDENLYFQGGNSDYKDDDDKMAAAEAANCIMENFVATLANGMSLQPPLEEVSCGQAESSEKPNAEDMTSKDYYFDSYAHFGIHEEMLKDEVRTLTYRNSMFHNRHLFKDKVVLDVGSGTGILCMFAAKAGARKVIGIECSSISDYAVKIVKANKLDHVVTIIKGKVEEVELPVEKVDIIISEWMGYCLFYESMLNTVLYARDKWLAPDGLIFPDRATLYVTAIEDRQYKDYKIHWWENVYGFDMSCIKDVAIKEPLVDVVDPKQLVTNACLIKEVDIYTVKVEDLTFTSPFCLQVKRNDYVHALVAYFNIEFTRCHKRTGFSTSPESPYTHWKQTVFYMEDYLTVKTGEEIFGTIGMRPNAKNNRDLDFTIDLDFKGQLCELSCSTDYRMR

Row | Compound | IC50 [1] [nM] | EC30 [2, 3] [nM] | EC30 ([2]; RKO, 72 h) [nM]
1 | C=CCn1cc(CN(C)CCNC)c(-c2ccc(OC(C)C)cc2)n1 [Compound 218] | < 100 | > 12000 | –
2 | CNCCN(C)Cc1cn(C)nc1-c1ccc(OC(C)C)cc1 [Compound 243, N1-((3-(4-isopropoxyphenyl)-1-methyl-1H-pyrazol-4-yl)methyl)-N1,N2-dimethylethane-1,2-diamine] | < 100 | < 3000 | –
3 | CNCCN(C)Cc1cn(CCCC(O)CO)nc1-c1ccc(F)cc1 (stereo not drawn) [Compound 30] | 3010 to 10000 | > 12000 | –
4 | CC(C)Oc1cc(-c2n[nH]cc2CN(C)CCN)ccc1F [Compound 188] | 101 to 1000 | > 12000 | –
5 | CNCCN(C)Cc1cn(CC(N)=O)nc1-c1ccc(OC(C)C)cc1 [Compound 251] | 101 to 1000 | > 12000 | –
6 | CN(CCN1CCC1)Cc1c[nH]nc1-c1ccc(C#N)cc1 [Compound 185] | 1010 to 3000 | > 12000 | –
7 | CN(CCN)Cc1n[nH]cc1-c1ccc(Oc2ccccc2)cc1 [Compound 203] | < 100 | < 3000 | –
8 | C=CCn1ncc(CN(C)CCNC)c1-c1ccc(OC(C)C)cc1 [Compound 219] | < 100 | > 12000 | –
9 | CNCCN(C)Cc1cn(C2CCCCC2)nc1-c1ccc(OC(C)C)cc1 [Compound 256] | 101 to 1000 | > 12000 | –
10 | C=CC(=O)Nc1cccc(-c2[nH]ncc2CN(C)CCNC)c1 [Compound 258] | < 100 | > 12000 | –
11 | CNCCN(C)Cc1c[nH]nc1-c1ccccc1C(F)(F)F [Compound 38] | 1010 to 3000 | > 12000 | –
12 | CNCCN(C)Cc1cnn(C2CC2)c1-c1ccc(F)cc1 [Compound 14] | 101 to 1000 | 3010 to 12000 | –
13 | CNCCN(C)Cc1cn(C2CC2)nc1-c1ccc(F)cc1 [Compound 13] | 1010 to 3000 | > 12000 | –
14 | CC(C)CC(=O)N1CCN(c2ccc(-c3n[nH]cc3CN(C)CCN)cc2)CC1 [Compound 180] | 101 to 1000 | > 12000 | –
15 | CC(C)Oc1ccc(-c2c[nH]nc2CN(C)CCN)cc1Cl [Compound 211] | < 100 | < 3000 | –
16 | CNCCN(C)Cc1c[nH]nc1-c1ccc(OCCCOC)c(Cl)c1 [Compound 228] | < 100 | < 3000 | –
17 | CNCCN(C)Cc1cn[nH]c1-c1cc(F)cc(F)c1 [Compound 18] | < 100 | > 12000 | –
18 | CNCCN(C)Cc1c[nH]nc1-c1ccc(Oc2ccccc2)c(C#N)c1 [Compound 221] | < 100 | < 3000 | –
19 | CNCCN(C)Cc1c[nH]nc1-c1cccc([N+](=O)[O-])c1 [Compound 21] | < 100 | > 12000 | –
20 | CNCCN(C)Cc1cn(CCOC)nc1-c1ccc(OC(C)C)cc1 [Compound 253, N1-((3-(4-isopropoxyphenyl)-1-(2-methoxyethyl)-1H-pyrazol-4-yl)methyl)-N1,N2-dimethylethane-1,2-diamine hydrochloride] | 101 to 1000 | 3010 to 12000 | –
21 | CNCCN(C)Cc1c[nH]nc1-c1cccc(OC)c1 [Compound 24] | < 100 | > 12000 | –
22 | CN(CCN)Cc1c[nH]nc1-c1ccc2c(c1)OCC(=O)N2C [Compound 192] | 101 to 1000 | > 12000 | –
23 | CNCCN(C)Cc1cnn(CCCC(O)CO)c1-c1ccc(F)cc1 (stereo not drawn) [Compound 31] | 101 to 1000 | > 12000 | –
24 | CNCCN(C)Cc1c[nH]nc1-c1ccc(O)cc1 [Compound 27] | < 100 | > 12000 | –
25 | CNCCN(C)Cc1c[nH]nc1-c1ccc(N)cc1 [Compound 33] | 101 to 1000 | > 12000 | –
26 | CC(C)CN1C(=O)COc2ccc(-c3n[nH]cc3CN(C)CCN)cc21 [Compound 191] | 101 to 1000 | > 12000 | –

Row | Compound | IC50 [1] [nM] | EC30 [2, 3] [nM] | EC30 ([2]; RKO, 72 h) [nM]
27 | CNCCN(C)Cc1c[nH]nc1-c1ccccc1OC [Compound 23] | 101 to 1000 | > 12000 | –
28 | CNCCN(C)Cc1n[nH]cc1-c1ccc(OC(C)C)c(Cl)c1 [Compound 212] | < 100 | < 3000 | –
29 | CNCCN(C)Cc1cn(C)nc1-c1ccc(OC(C)C)c(Cl)c1 [Compound 206] | < 100 | – | < 3000
30 | CN(CCN)Cc1c[nH]nc1-c1ccc(Oc2ccc(F)cc2)cc1 [Compound 225, N^1-((3-(4-(4-fluorophenoxy)phenyl)-1H-pyrazol-4-yl)methyl)-N^1-methylethane-1,2-diamine] | < 100 | < 3000 | –
31 | CNCCN(C)Cc1c[nH]nc1-c1ccccc1OC(F)(F)F [Compound 40] | 101 to 1000 | > 12000 | –
32 | CN(CCN)Cc1c[nH]nc1-c1ccc(Oc2ccccc2)c(F)c1 [Compound 224, N^1-((3-(3-fluoro-4-phenoxyphenyl)-1H-pyrazol-4-yl)methyl)-N^1-methylethane-1,2-diamine] | < 100 | – | < 3000
33 | CNCCN(C)Cc1cn(C2CCOC2)nc1-c1ccc(OC(C)C)cc1 (stereo not drawn) [Compound 215] | < 100 | > 12000 | –
34 | CN(CCN)Cc1c[nH]nc1-c1ccc(OCCCO)cc1 [Compound 195] | < 100 | 3010 to 12000 | –
35 | CNCCN(C)Cc1c[nH]nc1-c1cccc(C#N)c1 [Compound 22] | 101 to 1000 | > 12000 | –
36 | Cc1cc(-c2n[nH]cc2CN(C)CCN)cc(C)c1OC(C)C [Compound 199, N^1-((3-(4-isopropoxy-3,5-dimethylphenyl)-1H-pyrazol-4-yl)methyl)-N^1-methylethane-1,2-diamine] | < 100 | < 3000 | –
37 | CN(CCN)Cc1c[nH]nc1-c1ccc(Oc2ccccc2)c(C#N)c1 [Compound 202] | < 100 | < 3000 | –
38 | CNCCN(C)Cc1cn[nH]c1-c1ccc(C#N)cc1 [Compound 17] | < 100 | – | > 12000
39 | CN(CCN)Cc1c[nH]nc1-c1ccc(OCCO)cc1 [Compound 194] | < 100 | > 12000 | –
40 | CN(CCN)Cc1c[nH]nc1-c1ccc(Oc2ccccc2)c(C(=O)N(C)C)c1 [Compound 226] | < 100 | > 12000 | –
41 | CNC(=O)c1cc(-c2n[nH]cc2CN(C)CCN)ccc1Oc1ccccc1 [Compound 227] | < 100 | > 12000 | –
42 | CNCCN(C)Cc1cn(Cc2ccccn2)nc1-c1ccc(OC(C)C)cc1 [Compound 247] | 101 to 1000 | 3010 to 12000 | –
43 | C=C(C)C(=O)Nc1cccc(-c2[nH]ncc2CN(C)CCNC)c1 [Compound 257] | 101 to 1000 | > 12000 | –
44 | CNCCN(C)Cc1c[nH]nc1-c1ccc(CO)cc1 [Compound 28] | < 100 | 3010 to 12000 | –
45 | CNCCN(C)Cc1c[nH]nc1-c1ccc(C(F)(F)F)cc1 [Compound 174] | < 100 | < 3000 | –
46 | CN(CCN)Cc1c(-c2ccc(C#N)cc2)ncn1C [Compound 222] | 1010 to 3000 | > 12000 | –
47 | CNCCN(C)Cc1n[nH]cc1-c1ccc(Oc2ccccc2)cc1 [Compound 204] | < 100 | < 3000 | –
48 | CCn1ncc(CN(C)CCNC)c1-c1ccc(OC(C)C)cc1 [Compound 252] | < 100 | – | < 3000
49 | CC(C)Oc1cccc(-c2n[nH]cc2CN(C)CCN)c1 [Compound 187] | 101 to 1000 | 3010 to 12000 | –
50 | CNCCN(C)Cc1cn(CC(=O)OC)nc1-c1ccc(OC(C)C)cc1 [Compound 248] | 101 to 1000 | > 12000 | –
51 | CNCCN(C)Cc1cnn(CC(=O)OC)c1-c1ccc(OC(C)C)cc1 [Compound 249] | 101 to 1000 | – | 3010 to 12000
